Experimental data from PMC9118553, “In Vivo Bioconcentration of 10 Anionic Surfactants in Rainbow Trout Explained by In Vitro Data on Partitioning and S9 Clearance” (Environmental Science & Technology, 2022).
“And” between values parts separate entries of the source, which are not always exact repeats. Equal entries are not always repeated. Marks after values point to notes of the source that are not given here.

Test system: rainbow trout
Test: In vivo bioconcentration experiment with a mixture of anionic surfactants, flow-through aquaria, 10 °C, pH 7.8
Conditions: for Log BCF: determined with measured concentrations in water; for Concentration in fish: individual fish; for diffusion coefficient (D) in the epithelial membrane of the gills: in vivo; for BCF (kinetic): kinetic BCF from measured concentrations in water; for BCF (steady-state): plateau 6-96 h, 95% confidence interval in brackets
Description: The bioconcentration of a mixture of 10 anionic surfactants was measured in rainbow trout in water at pH 7.8. […] The experiment was conducted in flow-through aquaria with juvenile rainbow trout at 10 °C. Ethical approval for the experiments was obtained from Stockholms […] (decision 9967-2017). The fish, fish housing, fish handling, and procedure for introducing the mixture of […] chemicals were very similar to our previous study with cationic surfactants;[5] details are provided in Text S1. The experiment consisted of a 4-day exposure phase and a 7-day depuration phase. […] Water samples were collected and fish were sacrificed according to the schedule in Table S4. The water samples were collected just prior to the daily removal of feces from the aquarium. Triplicate samples were taken at each time point. […] The water/methanol mixture was analyzed using liquid chromatography-mass spectrometry (LC-MS)/MS as described below for fish. At each fish sampling, five fish were sacrificed. Following stunning and severance of the spinal cord, the whole fish were placed in a polyethylene bag, weighed, and immediately frozen at -20 °C. The weight of the individual fish at sacrifice was 24.0 ± 5.6 g. Three of the five fish from each time point were prioritized for analysis based on proximity to the median fish weight. Each fish was […] homogenized with an Ultra-turrax dispersing device. […] This mixture was homogenized in a bullet blender for 5 min and then placed in an ultrasound bath at 45 °C for 15 min. Following centrifugation for 15 min@3200 RCF, the supernatant was decanted and the extraction was repeated. The extracts were combined. For instrumental analysis, 5 μL of the fish extract or 60 μL of the water/methanol mixture (water samples) was separated on an Acquity UPLC BEH C18 column fitted with a BEH C18 pre-column and analyzed on a TSQ Quantiva triple quadrupole mass spectrometer. The mobile phase was methanol (10 mM ammonium acetate) and Milli-Q-filtered water (10 mM ammonium acetate) (see Table S5 for the liquid chromatography program). To avoid detergent blank peaks originating from cleaning mobile phase bottles, the methanol was prepared directly in the solvent bottle as delivered and Milli-Q was tapped into an empty methanol bottle. Furthermore, a guard column was fitted between the mobile phase and the autosampler to prevent background contamination from disturbing the analysis. All analytes were quantified against the BEHP internal standard, as it gave better reproducibility. […] The central goal of the analysis was to estimate kU and kT as well as the BCF (=kU/kT) from measurements of surfactant concentration in fish and water samples collected at different time points of the experiment. For the fish, only those time points were included for which CF(measured) was above the limit of quantitation (LOQ) in all three fish (data below the LOQ will have a positive bias; including them would result in a negative bias in kT). In this analysis, there exist two sources of uncertainty: first, uncertainty in the actual concentration in water CW at the time of sample collection and second, variability in the concentration in fish around the (expected) surfactant concentrations in fish assumed to follow model (1). We therefore set up a model in which we considered uncertainty in both water and fish measurements simultaneously by assuming a parametric model for the surfactant concentration in the water over time (either linear or quadratic) and accounted for the uncertainty in the corresponding parameters of the water model during the estimation of kU and kT. This was done in a joint Bayesian model that we estimated via Hamiltonian Monte Carlo. […]

[1] = determined using nominal concentrations in water
[2] = from measured concentrations in water, Bayesian estimate, 95% credible interval in brackets
[3] = 95% credible interval in brackets
[4] = measured concentrations in water, simpler estimation method (Text S3), 95% confidence intervals in brackets
[5] = measured concentrations in water

SMILES	BCF [1] [L kg-1 ww]	Log BCF [L kg-1 ww]	Concentration in fish (elimination phase, 97 h)	Concentration in fish (elimination phase, 98 h)	Concentration in fish (elimination phase, 100 h)	Concentration in fish (elimination phase, 103 h)	Concentration in fish (elimination phase, 120 h)	Concentration in fish (elimination phase, 128 h)	Concentration in fish (elimination phase, 144 h)	Concentration in fish (elimination phase, 168 h)	Concentration in fish (elimination phase, 192 h)	Concentration in fish (elimination phase, 264 h)	Concentration in fish (exposure phase, 1 h)	Concentration in fish (exposure phase, 2 h)	Concentration in fish (exposure phase, 3 h)	Concentration in fish (exposure phase, 4 h)	Concentration in fish (exposure phase, 6 h)	Concentration in fish (exposure phase, 24 h)	Concentration in fish (exposure phase, 48 h)	Concentration in fish (exposure phase, 72 h)	also measured
CCCCCCCCCCc1ccc(S(=O)(=O)O)cc1 [C10-1-LAS, 1-n-(p-sulfophenyl)decane]	15.0	1.21	78 ng g-1 ww (2×) and 103 ng g-1 ww	73 ng g-1 ww and 72 ng g-1 ww and 55 ng g-1 ww	74 ng g-1 ww and 57 ng g-1 ww and 60 ng g-1 ww	47 ng g-1 ww and 58 ng g-1 ww and 51 ng g-1 ww	24 ng g-1 ww and 27 ng g-1 ww and 17.2 ng g-1 ww	14.0 ng g-1 ww and 17.0 ng g-1 ww and 18.2 ng g-1 ww	7.6 ng g-1 ww and 6.8 ng g-1 ww and 10.2 ng g-1 ww	4.7 ng g-1 ww and 3.5 ng g-1 ww (2×)	1.08 ng g-1 ww and 1.14 ng g-1 ww and 1.40 ng g-1 ww	1.0 ng g-1 ww and 0.7 ng g-1 ww and 0.31 ng g-1 ww	8.9 ng g-1 ww and 6.9 ng g-1 ww and 16.6 ng g-1 ww	11.3 ng g-1 ww and 10.6 ng g-1 ww and 7.2 ng g-1 ww	16.5 ng g-1 ww and 19.7 ng g-1 ww and 16.6 ng g-1 ww	26 ng g-1 ww and 32 ng g-1 ww and 75 ng g-1 ww	38 ng g-1 ww (2×) and 27 ng g-1 ww	86 ng g-1 ww and 91 ng g-1 ww and 64 ng g-1 ww	94 ng g-1 ww and 98 ng g-1 ww and 84 ng g-1 ww	112 ng g-1 ww and 87 ng g-1 ww and 70 ng g-1 ww	Elimination rate constant kT [1]: 0.049 h⁻¹; Uptake rate constant kU [1]: 0.74 L/kg/h; Concentration in fish (exposure phase, 96 h): 113 ng g-1 ww and 104 ng g-1 ww and 110 ng g-1 ww; Elimination rate constant kT [2]: 0.047 (0.044–0.050) h^–1; Uptake rate constant kU [2]: 0.77 (0.67–0.87) L kg^–1 ww h^–1; diffusion coefficient (D) in the epithelial membrane of the gills: 2.4 × 10^–8 m h^–1; BCF (kinetic) [3]: 16.3 (14.6–18.2) L kg^–1 ww; BCF [4]: 14.7 (8) L kg-1 ww; Elimination rate constant kT [4]: 0.046 (3) h-1; Uptake rate constant kU [4]: 0.67 (8) L kg-1 ww h-1; BCF (own values): 16.3 L kg^–1
CCCCCCCCCCS(=O)(=O)O [C10SO3, decylsulfonate]	0.046	-1.38	3.0 ng g-1 ww and 1.5 ng g-1 ww and 1.3 ng g-1 ww	1.5 ng g-1 ww and 1.0 ng g-1 ww and 1.4 ng g-1 ww	5.1 ng g-1 ww and 1.4 ng g-1 ww (2×)	0.3 ng g-1 ww (2×) and 0.6 ng g-1 ww	0.50 ng g-1 ww and 0.76 ng g-1 ww and 0.61 ng g-1 ww	0.62 ng g-1 ww and 0.49 ng g-1 ww and 0.99 ng g-1 ww	0.63 ng g-1 ww and 0.33 ng g-1 ww and 5.2 ng g-1 ww	0.49 ng g-1 ww and 0.55 ng g-1 ww and 0.16 ng g-1 ww	0.14 ng g-1 ww and 0.15 ng g-1 ww and 0.22 ng g-1 ww	2.0 ng g-1 ww and 1.9 ng g-1 ww and 0.2 ng g-1 ww	1.1 ng g-1 ww and 2.1 ng g-1 ww and 1.4 ng g-1 ww	1.1 ng g-1 ww (2×) and 7.5 ng g-1 ww	1.5 ng g-1 ww and 1.6 ng g-1 ww and 5.5 ng g-1 ww	2.4 ng g-1 ww and 3.5 ng g-1 ww and 6.5 ng g-1 ww	2.1 ng g-1 ww and 2.0 ng g-1 ww and 1.4 ng g-1 ww	42.8 ng g-1 ww and 1.4 ng g-1 ww (2×)	2.4 ng g-1 ww and 3.6 ng g-1 ww and 1.7 ng g-1 ww	3.6 ng g-1 ww and 2.1 ng g-1 ww and 3.0 ng g-1 ww	Concentration in fish (exposure phase, 96 h): 3.0 ng g-1 ww (2×) and 2.8 ng g-1 ww; BCF (steady-state) [5]: 0.042 ^d (0.034–0.050) L kg^–1 ww
CCCCCCCCCCCS(=O)(=O)O [C11SO3, undecylsulfonate]	0.137	-0.87	5.5 ng g-1 ww and 3.8 ng g-1 ww and 3.2 ng g-1 ww	3.2 ng g-1 ww and 2.8 ng g-1 ww and 30.6 ng g-1 ww	14.1 ng g-1 ww and 2.8 ng g-1 ww and 3.1 ng g-1 ww	2.2 ng g-1 ww and 3.0 ng g-1 ww and 6.7 ng g-1 ww	0.58 ng g-1 ww and 0.87 ng g-1 ww and 0.78 ng g-1 ww	0.53 ng g-1 ww and 0.50 ng g-1 ww and 0.58 ng g-1 ww	0.49 ng g-1 ww and 0.42 ng g-1 ww and 0.53 ng g-1 ww	0.56 ng g-1 ww and 0.41 ng g-1 ww and 0.22 ng g-1 ww	0.10 ng g-1 ww and 0.19 ng g-1 ww (2×)	1.49 ng g-1 ww and 0.23 ng g-1 ww and 0.19 ng g-1 ww	3.2 ng g-1 ww and 1.5 ng g-1 ww and 8.4 ng g-1 ww	2.1 ng g-1 ww and 1.9 ng g-1 ww and 1.4 ng g-1 ww	2.9 ng g-1 ww and 3.6 ng g-1 ww and 3.2 ng g-1 ww	3.5 ng g-1 ww and 13.4 ng g-1 ww and 41 ng g-1 ww	4.7 ng g-1 ww and 5.0 ng g-1 ww and 3.8 ng g-1 ww	5.5 ng g-1 ww and 4.2 ng g-1 ww and 3.8 ng g-1 ww	4.4 ng g-1 ww and 5.1 ng g-1 ww and 3.7 ng g-1 ww	7.2 ng g-1 ww and 5.2 ng g-1 ww and 4.9 ng g-1 ww	Concentration in fish (exposure phase, 96 h): 8.1 ng g-1 ww and 7.8 ng g-1 ww and 5.3 ng g-1 ww; BCF (steady-state) [5]: 0.136 ^d (0.114–0.158) L kg^–1 ww
CCCCCCCCCCCOS(=O)(=O)O [C11SO4, undecylsulfate]	0.57	-0.11	5.9 ng g-1 ww and 5.5 ng g-1 ww and 6.7 ng g-1 ww	4.6 ng g-1 ww and 4.4 ng g-1 ww and 3.8 ng g-1 ww	6.6 ng g-1 ww and 3.0 ng g-1 ww and 3.5 ng g-1 ww	1.5 ng g-1 ww and 2.0 ng g-1 ww and 2.7 ng g-1 ww	1.06 ng g-1 ww and 0.77 ng g-1 ww and 0.51 ng g-1 ww	0.66 ng g-1 ww and 0.48 ng g-1 ww and 0.54 ng g-1 ww	0.53 ng g-1 ww and 0.27 ng g-1 ww and 0.19 ng g-1 ww	0.59 ng g-1 ww and 0.22 ng g-1 ww and 0.17 ng g-1 ww	0.08 ng g-1 ww and 0.13 ng g-1 ww and 0.09 ng g-1 ww	0.84 ng g-1 ww and 0.15 ng g-1 ww (2×)	3.1 ng g-1 ww and 3.6 ng g-1 ww and 4.1 ng g-1 ww	5.6 ng g-1 ww and 4.4 ng g-1 ww and 4.1 ng g-1 ww	7.5 ng g-1 ww and 9.4 ng g-1 ww and 7.6 ng g-1 ww	10.7 ng g-1 ww and 11.2 ng g-1 ww and 18.0 ng g-1 ww	15.8 ng g-1 ww and 14.7 ng g-1 ww and 14.1 ng g-1 ww	18.5 ng g-1 ww and 15.1 ng g-1 ww and 10.9 ng g-1 ww	7.4 ng g-1 ww and 12.0 ng g-1 ww and 11.2 ng g-1 ww	12.6 ng g-1 ww and 8.7 ng g-1 ww and 8.2 ng g-1 ww	Elimination rate constant kT [1]: 0.233 h⁻¹; Uptake rate constant kU [1]: 0.133 L/kg/h; Concentration in fish (exposure phase, 96 h): 9.9 ng g-1 ww and 8.7 ng g-1 ww and 14.1 ng g-1 ww; Elimination rate constant kT [2]: 0.178 (0.151–0.206) h^–1; Uptake rate constant kU [2]: 0.136 (0.113–0.163) L kg^–1 ww h^–1; diffusion coefficient (D) in the epithelial membrane of the gills: 3.7 × 10^–8 m h^–1; BCF (kinetic) [3]: 0.77 (0.68–0.87) L kg^–1 ww; BCF [4]: 0.74 (33) L kg-1 ww; Elimination rate constant kT [4]: 0.179 (19) h-1; Uptake rate constant kU [4]: 0.133 (27) L kg-1 ww h-1; BCF (own values): 0.77 L kg^–1
